Source: PubChem BioAssay (NCI)
Where “and” joins values, the source holds several entries; their conditions need not be identical. Equal values may be shown once.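 Dose response: 5 concentrations. Exposure: 48 h. Format: 96-well plates. Endpoint: linear interpolation; highest concentration if not reached. GI50 marks 50% less growth. The concentration for full growth arrest is given as TGI.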

Experiments:
Test in all cases: NCI anticancer screen, dose series, 48 h
UACC-257 melanoma = tested on: UACC-257 melanoma
MOLT-4 leukemia = tested on: MOLT-4 leukemia
NCI-H23 lung = tested on: NCI-H23 lung
NCI-H226 lung = tested on: NCI-H226 lung
NCI-H522 lung = tested on: NCI-H522 lung
COLO 205 colon = tested on: COLO 205 colon
SK-OV-3 ovarian = tested on: SK-OV-3 ovarian
CCRF-CEM leukemia = tested on: CCRF-CEM leukemia
RPMI-8226 leukemia = tested on: RPMI-8226 leukemia
LOX IMVI melanoma = tested on: LOX IMVI melanoma

Row | SMILES | TGI (UACC-257 melanoma) [µM] | TGI (MOLT-4 leukemia) [µM] | TGI (NCI-H23 lung) [µM] | TGI (NCI-H226 lung) [µM] | TGI (NCI-H522 lung) [µM] | TGI (COLO 205 colon) [µM] | TGI (SK-OV-3 ovarian) [µM] | TGI (CCRF-CEM leukemia) [µM] | TGI (RPMI-8226 leukemia) [µM] | TGI (LOX IMVI melanoma) [µM] | GI50 (UACC-257 melanoma) | GI50 (MOLT-4 leukemia) | GI50 (NCI-H23 lung) | GI50 (NCI-H226 lung) | GI50 (NCI-H522 lung) | GI50 (COLO 205 colon) | GI50 (SK-OV-3 ovarian) | GI50 (CCRF-CEM leukemia) | GI50 (RPMI-8226 leukemia) | GI50 (LOX IMVI melanoma)
1 | CC(C)C1=CC23CCC4C(C)(C(=O)O)CCCC4(C)C2CC1C1C(=O)N(c2ccccc2)C(=O)C13 (stereo not given) | 84.2 | > 100 | > 100 | 60.3 | > 100 | 52.3 | > 100 | > 100 | > 100 | > 100 | – | – | – | – | – | – | – | – | – | –
2 | CCN(CC)CCCC(C)N=C(C1=C(C(=NC(C)CCCN(CC)CC)c2cccc(OC)c2)C(=O)NC1=O)c1cccc(OC)c1 (stereo not given) | 1.75 | 4.24 | 9.11 | 13.6 | 2.03 | 1.56 | 13.1 | 7.47 | 3.26 | 2.06 | 0.952 µM | 1.33 µM | 2.52 µM | 2.83 µM | 0.989 µM | 0.772 µM | 2.98 µM | 1.49 µM | 1.23 µM | 0.992 µM
3 | CCCC(CCC)C(=O)OCC1(CO)C/C(=C\c2ccc(F)cc2)C(=O)O1 (stereo not given) | 28.7 | 21.4 | 26.7 | 32.3 | 30.4 | 8.74 | 33.9 | 0.107 | 7.15 | 24.5 | 14.7 µM | 3.54 µM | 12.4 µM | 11.7 µM | 14.5 µM | 0.545 µM | 19.5 µM | 0.0233 µM | 0.845 µM | 11.2 µM
4 | CO[C@H](C(=O)[C@@H](O)[C@@H](C)O)[C@@H]1Cc2cc3cc(OC4CC(OC5CC(O)C(O)C(C)O5)C(O)C(C)O4)c(C)c(O)c3c(O)c2C(=O)[C@H]1OC1CC(OC2CC(OC3CC(C)(O)C(O)C(C)O3)C(O)C(C)O2)C(O)C(C)O1 (stereo not given in full) | – | – | – | – | – | – | – | – | – | – | 0.0259 µg/mL and 0.0361 µg/mL | 0.0223 µg/mL | 0.0235 µg/mL and 0.0192 µg/mL | 0.0179 µg/mL and 0.0115 µg/mL | 0.0143 µg/mL and 0.0124 µg/mL | 0.0144 µg/mL and 0.0182 µg/mL | 0.0437 µg/mL | 0.0386 µg/mL and 0.0314 µg/mL | 0.0265 µg/mL and 0.0214 µg/mL | 0.0262 µg/mL
5 | CC/C(CC(=O)CCC(=O)Nc1ccccc1[N+](=O)[O-])=N/NC(=O)C[n+]1ccccc1 | > 100 | > 100 | > 100 | > 100 | > 100 | > 100 | > 100 | > 100 | > 100 | > 100 | – | – | – | – | – | – | – | – | – | –
6 | O=C(O)C(Cl)(c1ccccc1)c1ccccc1 | > 100 | > 100 | > 100 | > 100 | > 100 | > 100 | > 100 | > 100 | > 100 | > 100 | – | – | – | – | – | – | – | – | – | –
7 | CCn1c(-c2cc3ccccc3cc2O)nn(C(=O)c2c(Cl)cccc2Cl)c1=S | > 50 | > 50 | > 50 | 40.2 | > 50 | > 50 | 40 | > 50 | 46.1 | > 50 | > 50 µM | 34.6 µM | 20.3 µM | 14.2 µM | 21.6 µM | 40.3 µM | 15.4 µM | 27.1 µM | 13.3 µM | > 50 µM
8 | Cc1cc(CC(C)CC(C)(C)C)n(O)c(=O)c1 (stereo not given) (tested in a mixture with another compound) | > 100 | 0.714 | 22 | 10.4 | 4.23 | 59.6 | > 55.3 | 1.3 | 8.06 | 10.9 | 0.507 µM | 0.246 µM | 0.559 µM | 0.435 µM | 0.475 µM | 13.4 µM | 1.75 µM | 0.261 µM | 0.365 µM | 0.312 µM
9 | COc1cccc(C2c3cc4c(cc3OC(N3CCCC3)C2C)OCO4)c1O (stereo not given) | 40.3 | 93 | 34.9 | 35.6 | 20 | 10.5 | 35.2 | > 100 | 27.9 | > 66.2 | – | – | – | – | – | – | – | – | – | –
10 | COc1cc(-c2nc(-c3nc4ccccc4[nH]3)cc3c2[nH]c2ccccc23)cc(OC)c1OC | > 100 | > 100 | > 100 | > 100 | > 100 | > 100 | > 100 | > 100 | 8.61 | > 100 | 3.57 µM | 3.93 µM | 4.4 µM | 7.19 µM | 3.51 µM | 4.58 µM | > 100 µM | 3.96 µM | 2.15 µM | 4.72 µM
11 | O=C(/C=C/c1ccccc1)n1c(-c2ccc(Cl)cc2)nc2ccccc21 | 3.42 | 6.73 | 4.89 | 6 | 2.64 | 2.78 | 5.71 | 3.45 | 3.82 | 1.91 | 1.47 µM | 1.13 µM | 1.91 µM | 2.17 µM | 1.23 µM | 1.41 µM | 2.43 µM | 0.731 µM | 0.614 µM | 0.588 µM
12 | COC(=O)Cc1ccc(Oc2cnc3cc(F)c(F)cc3n2)cc1 | > 100 | 32.9 | > 100 | > 100 | > 100 | > 100 | > 100 | > 100 | 81 | > 100 | > 100 µM | 12.7 µM | 68.4 µM | 52.9 µM | > 100 µM | > 100 µM | > 100 µM | 44.2 µM | 23.2 µM | > 100 µM
13 | CC(C)(C)[Si](C)(C)OC1[C@@H](O[Si](C)(C)C(C)(C)C)[C@@H](CNC(=O)NC(=O)CCl)O[C@H]1n1cnc2c(NC(=O)Nc3ccccc3)ncnc21 (stereo not given in full) | 1.89 | 0.913 | 1.84 | 1.3 | 0.196 | 3.5 | 1.5 | 0.125 | 0.682 | 0.18 | 0.884 µM | 0.339 µM | 0.756 µM | 0.651 µM | 0.096 µM | 1.41 µM | 0.799 µM | 0.0441 µM | 0.167 µM | 0.0829 µM
14 | O=C(Cc1ccccc1)Nn1c(-c2ccccc2)nc2ccccc2c1=O | > 100 | > 100 | > 100 | > 100 | > 100 | > 100 | > 100 | > 100 | > 100 | > 100 | – | – | – | – | – | – | – | – | – | –
